Assays:
Assay type in all cases: cell-based
EGFR WT [1] = molecular target: T1, EGFR WT (Homo sapiens, UniProt P00533); assay: Activity for inhibiting EGFR (Table A), EGFR WT; settings: read-out: EGFR WT, potency code (IC50)
EGFR V3 [2] = molecular target: T2, EGFR V3 (Homo sapiens, UniProt P00533, DELINS30-297G); assay: Activity for inhibiting EGFR (Table A), EGFR V3 (EGFR-Viii); settings: read-out: EGFR V3, potency code (IC50)
T2 construct: expressed in transfected cells; host or cells: BaF3 (murine pro-B), retroviral pMXs-IRES-Blasticidin
T2 sequence (P00533 with tags, fused parts or gaps DELINS30-297G): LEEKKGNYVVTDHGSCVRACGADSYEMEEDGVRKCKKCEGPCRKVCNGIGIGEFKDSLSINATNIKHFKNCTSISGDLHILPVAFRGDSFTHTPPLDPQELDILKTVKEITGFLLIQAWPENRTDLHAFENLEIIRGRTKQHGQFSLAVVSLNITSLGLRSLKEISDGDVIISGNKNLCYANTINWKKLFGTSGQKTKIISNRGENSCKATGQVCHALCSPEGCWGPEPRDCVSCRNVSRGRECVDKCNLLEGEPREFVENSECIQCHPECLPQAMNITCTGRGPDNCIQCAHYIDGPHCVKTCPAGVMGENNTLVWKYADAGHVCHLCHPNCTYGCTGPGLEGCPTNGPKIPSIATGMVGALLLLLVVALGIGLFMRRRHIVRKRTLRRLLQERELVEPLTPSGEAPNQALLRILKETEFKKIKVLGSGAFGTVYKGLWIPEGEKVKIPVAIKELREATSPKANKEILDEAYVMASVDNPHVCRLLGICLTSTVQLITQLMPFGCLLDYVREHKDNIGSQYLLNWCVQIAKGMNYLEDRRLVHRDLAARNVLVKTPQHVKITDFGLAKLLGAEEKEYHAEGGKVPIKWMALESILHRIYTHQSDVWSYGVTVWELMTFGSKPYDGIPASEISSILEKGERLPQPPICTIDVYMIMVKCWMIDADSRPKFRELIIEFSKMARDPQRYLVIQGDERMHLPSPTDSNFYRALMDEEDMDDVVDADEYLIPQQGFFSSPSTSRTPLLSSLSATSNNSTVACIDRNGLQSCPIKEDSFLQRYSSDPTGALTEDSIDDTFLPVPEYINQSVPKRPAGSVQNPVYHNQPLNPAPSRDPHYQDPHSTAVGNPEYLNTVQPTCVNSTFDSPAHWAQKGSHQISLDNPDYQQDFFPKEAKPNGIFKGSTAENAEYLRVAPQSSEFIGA

EGFR NPH [3] = molecular target: T3, EGFR NPH (Homo sapiens, UniProt P00533, DUP771-773); assay: Activity for inhibiting EGFR (Table A), EGFR NPH; settings: read-out: EGFR NPH, potency code (IC50)
T3 construct: expressed in transfected cells; host or cells: BaF3 (murine pro-B), retroviral pMXs-IRES-Blasticidin

HER2 WT [4] = molecular target: T4, HER2 WT (Homo sapiens, UniProt P04626); assay: Activity for inhibiting HER2 (Table B), HER2 WT
EGFR WT [5] = molecular target: T1, EGFR WT; assay: BaF3 cell proliferation assay, EGFR WT (Table A); settings: potency code, 3 days, CellTiterGlo, read-out: EGFR WT (Activity for Inhibiting EGFR)
In short: (§1)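 Mouse BaF3 cells were retrovirally transduced (pMXs-IRES-Blasticidin, VSV-G pseudotyped virus from HEK 293T) with the human EGFR or HER2 variant, selected in 10 μg/ml Blasticidin for one week, then made IL-3 independent. EC50 values come from proliferation of these lines.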

HER2 WT [6] = molecular target: T4, HER2 WT; assay: BaF3 cell proliferation assay, HER2 WT (Table B); settings: potency code, 3 days, CellTiterGlo, read-out: HER2 WT (Activity for Inhibiting HER2)
HER2 S310F [7] = molecular target: T5, HER2 S310F (Homo sapiens, UniProt P04626, S310F); assay: BaF3 cell proliferation assay, HER2 S310F (Table B); settings: potency code, 3 days, CellTiterGlo, read-out: HER2 S310F (Activity for Inhibiting HER2)
T5 construct: expressed in transfected cells; host or cells: BaF3 (murine pro-B)

EGFR SVD [8] = molecular target: T6, EGFR SVD (Homo sapiens, UniProt P00533, DUP768-770); assay: BaF3 cell proliferation assay, EGFR SVD (Table A); settings: potency code, 3 days, CellTiterGlo, read-out: EGFR SVD (Activity for Inhibiting EGFR)
T6 construct: expressed in transfected cells; host or cells: BaF3 (murine pro-B), retroviral pMXs-IRES-Blasticidin
T6 sequence (P00533 with tags, fused parts or gaps DUP768-770): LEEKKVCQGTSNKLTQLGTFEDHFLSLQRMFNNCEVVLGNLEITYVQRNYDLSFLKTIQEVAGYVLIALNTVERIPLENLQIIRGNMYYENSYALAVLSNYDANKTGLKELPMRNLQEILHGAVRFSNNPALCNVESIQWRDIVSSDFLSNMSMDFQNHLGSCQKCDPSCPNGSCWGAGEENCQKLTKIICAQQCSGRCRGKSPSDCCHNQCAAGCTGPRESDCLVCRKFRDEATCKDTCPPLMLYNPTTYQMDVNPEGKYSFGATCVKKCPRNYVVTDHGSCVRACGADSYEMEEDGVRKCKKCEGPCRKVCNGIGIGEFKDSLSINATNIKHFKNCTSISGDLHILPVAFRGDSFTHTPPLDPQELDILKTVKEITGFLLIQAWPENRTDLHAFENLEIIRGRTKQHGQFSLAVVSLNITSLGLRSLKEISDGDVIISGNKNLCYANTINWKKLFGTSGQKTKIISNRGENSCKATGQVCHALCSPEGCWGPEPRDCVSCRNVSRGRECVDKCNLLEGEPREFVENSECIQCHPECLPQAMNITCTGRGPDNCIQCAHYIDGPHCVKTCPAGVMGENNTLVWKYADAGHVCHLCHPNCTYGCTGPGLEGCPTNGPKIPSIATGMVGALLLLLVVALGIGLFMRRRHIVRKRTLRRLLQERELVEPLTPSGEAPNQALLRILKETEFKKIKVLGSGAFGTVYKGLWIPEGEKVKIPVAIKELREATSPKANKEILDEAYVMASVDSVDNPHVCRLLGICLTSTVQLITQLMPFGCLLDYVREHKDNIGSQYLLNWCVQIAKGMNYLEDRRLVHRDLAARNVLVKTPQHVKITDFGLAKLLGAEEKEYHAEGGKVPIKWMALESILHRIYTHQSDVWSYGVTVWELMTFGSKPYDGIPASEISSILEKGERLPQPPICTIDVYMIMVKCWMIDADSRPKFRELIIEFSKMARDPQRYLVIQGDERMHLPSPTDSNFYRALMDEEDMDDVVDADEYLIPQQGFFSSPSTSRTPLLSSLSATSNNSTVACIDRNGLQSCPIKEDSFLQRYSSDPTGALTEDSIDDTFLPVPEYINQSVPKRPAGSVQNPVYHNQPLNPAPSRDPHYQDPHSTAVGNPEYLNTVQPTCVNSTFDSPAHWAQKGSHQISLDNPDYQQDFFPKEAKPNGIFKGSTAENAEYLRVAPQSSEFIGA
Experimental: (§2) Retroviral Production: EGFR mutants were subcloned into pMXs-IRES-Blasticidin (RTV-016, Cell Biolabs, San Diego, Calif.). Retroviral expression vector retrovirus was produced by transient transfection of HEK 293T cells with the retroviral EGFR mutant expression vector pMXs-IRES-Blasticidin (RTV-016, Cell Biolabs), pCMV-Gag-Pol vector and pCMV-VSV-G-Envelope vector. Briefly, HEK 293T/17 cells were plated in 100 mm collagen coated plate (354450, Corning Life Sciences, Tewksbury, Mass.) (4×10^5 per plate) and incubated overnight. The next day, retroviral plasmids (3 μg of EGFR mutant, 1.0 μg of pCMV-Gag-Pol and 0.5 μg pCMV-VSV-G) were mixed in 500 μl of Optimem (31985, Life Technologies). The mixture was incubated at room temperature for 5 min and then added to Optimem containing transfection reagent Lipofectamine (11668, Invitrogen) and incubated for 20 minutes. Mixture was then added dropwise to HEK 293T cells. The next day the medium was replaced with fresh culture medium and retrovirus was harvested @ 24 and 48 hrs.
(§3) Generation of EGFR mutant stable cell lines: BaF3 cells (1.5E5 cells) were infected with 1 ml of viral supernatant supplemented with 8 μg/ml polybrene by centrifuging for 30 min at 1000 rpm. Cells were placed in a 37° C. incubator overnight. Cells were then spun for 5 minutes to pellet the cells. Supernatant was removed and cells re-infected a fresh 1 ml of viral supernatant supplemented with 8 μg/ml polybrene by centrifuging for 30 min at 1000 rpm. Cells were placed in 37° C. incubator overnight. […] After 48 hours cells were selected for retroviral infection in 10 μg/ml Blasticidin for one week. Blasticidin resistant populations were washed twice in phosphate buffered saline before plating in media lacking IL-3 to select for IL-3 independent growth.
(§4) EC50 values were determined with the same application.

EGFR NPH [9] = molecular target: T3, EGFR NPH; assay: BaF3 cell proliferation assay, EGFR NPH (Table A); settings: potency code, 3 days, CellTiterGlo, read-out: EGFR NPH (Activity for Inhibiting EGFR)
Experimental: as §2, §3, §4

EGFR SVD [10] = molecular target: T6, EGFR SVD; assay: Activity for inhibiting EGFR (Table A), EGFR SVD; settings: read-out: EGFR SVD, potency code (IC50)
HER2 YVMA [11] = molecular target: T7, HER2 YVMA (Homo sapiens, UniProt P04626, INS775YVMA); assay: Activity for inhibiting HER2 (Table B), HER2 YVMA; settings: read-out: HER2 YVMA, potency code (IC50)
T7 construct: expressed in transfected cells; host or cells: BaF3 (murine pro-B)
T7 sequence (P04626 with tags, fused parts or gaps INS775YVMA): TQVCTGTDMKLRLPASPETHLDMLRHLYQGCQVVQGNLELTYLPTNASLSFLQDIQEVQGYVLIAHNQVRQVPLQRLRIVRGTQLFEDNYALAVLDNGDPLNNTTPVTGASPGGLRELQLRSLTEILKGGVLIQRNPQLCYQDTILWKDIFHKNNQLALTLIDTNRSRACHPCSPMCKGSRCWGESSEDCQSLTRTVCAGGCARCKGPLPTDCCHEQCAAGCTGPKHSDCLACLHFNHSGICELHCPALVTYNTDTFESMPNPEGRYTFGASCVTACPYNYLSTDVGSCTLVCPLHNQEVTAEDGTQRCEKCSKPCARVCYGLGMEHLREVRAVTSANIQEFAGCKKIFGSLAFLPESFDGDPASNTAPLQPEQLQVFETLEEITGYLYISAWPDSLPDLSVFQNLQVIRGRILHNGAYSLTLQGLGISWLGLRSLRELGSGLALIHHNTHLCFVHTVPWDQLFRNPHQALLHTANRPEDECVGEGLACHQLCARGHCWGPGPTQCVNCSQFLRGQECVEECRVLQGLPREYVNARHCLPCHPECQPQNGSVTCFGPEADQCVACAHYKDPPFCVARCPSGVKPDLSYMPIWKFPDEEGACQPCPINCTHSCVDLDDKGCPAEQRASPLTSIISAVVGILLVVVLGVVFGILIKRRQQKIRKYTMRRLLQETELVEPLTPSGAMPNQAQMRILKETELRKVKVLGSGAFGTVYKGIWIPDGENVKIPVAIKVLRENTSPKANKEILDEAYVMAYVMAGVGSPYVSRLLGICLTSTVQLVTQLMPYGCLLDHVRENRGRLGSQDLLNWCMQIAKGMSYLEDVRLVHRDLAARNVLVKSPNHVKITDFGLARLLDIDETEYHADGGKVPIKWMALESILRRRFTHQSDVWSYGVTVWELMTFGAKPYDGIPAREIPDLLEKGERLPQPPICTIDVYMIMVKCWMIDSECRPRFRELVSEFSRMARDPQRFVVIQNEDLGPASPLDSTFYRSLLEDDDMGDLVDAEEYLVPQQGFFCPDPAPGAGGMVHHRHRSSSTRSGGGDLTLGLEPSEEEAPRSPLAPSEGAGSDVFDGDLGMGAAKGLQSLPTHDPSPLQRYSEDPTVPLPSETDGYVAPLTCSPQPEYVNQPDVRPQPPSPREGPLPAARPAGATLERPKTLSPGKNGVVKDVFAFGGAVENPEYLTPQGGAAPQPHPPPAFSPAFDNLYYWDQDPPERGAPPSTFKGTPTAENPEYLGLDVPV
Experimental: as §4

HER2 S310F [12] = molecular target: T5, HER2 S310F; assay: Activity for inhibiting HER2 (Table B), HER2 S310F; settings: read-out: HER2 S310F, potency code (IC50)
Experimental: as §4

HER2 YVMA [13] = molecular target: T7, HER2 YVMA; assay: BaF3 cell proliferation assay, HER2 YVMA (Table B); settings: potency code, 3 days, CellTiterGlo, read-out: HER2 YVMA (Activity for Inhibiting HER2)
EGFR V3 [14] = molecular target: T2, EGFR V3; assay: BaF3 cell proliferation assay, EGFR V3 (Table A); settings: potency code, 3 days, CellTiterGlo, read-out: EGFR V3 (Activity for Inhibiting EGFR)
In short: as §1

[15] = Table B, read-out: HER2 WT, potency code (IC50)
[16] = text lists of compounds, read-out: IC50 value for inhibiting wild-type HER2

T1 sequence (P00533 25-1210 N540K): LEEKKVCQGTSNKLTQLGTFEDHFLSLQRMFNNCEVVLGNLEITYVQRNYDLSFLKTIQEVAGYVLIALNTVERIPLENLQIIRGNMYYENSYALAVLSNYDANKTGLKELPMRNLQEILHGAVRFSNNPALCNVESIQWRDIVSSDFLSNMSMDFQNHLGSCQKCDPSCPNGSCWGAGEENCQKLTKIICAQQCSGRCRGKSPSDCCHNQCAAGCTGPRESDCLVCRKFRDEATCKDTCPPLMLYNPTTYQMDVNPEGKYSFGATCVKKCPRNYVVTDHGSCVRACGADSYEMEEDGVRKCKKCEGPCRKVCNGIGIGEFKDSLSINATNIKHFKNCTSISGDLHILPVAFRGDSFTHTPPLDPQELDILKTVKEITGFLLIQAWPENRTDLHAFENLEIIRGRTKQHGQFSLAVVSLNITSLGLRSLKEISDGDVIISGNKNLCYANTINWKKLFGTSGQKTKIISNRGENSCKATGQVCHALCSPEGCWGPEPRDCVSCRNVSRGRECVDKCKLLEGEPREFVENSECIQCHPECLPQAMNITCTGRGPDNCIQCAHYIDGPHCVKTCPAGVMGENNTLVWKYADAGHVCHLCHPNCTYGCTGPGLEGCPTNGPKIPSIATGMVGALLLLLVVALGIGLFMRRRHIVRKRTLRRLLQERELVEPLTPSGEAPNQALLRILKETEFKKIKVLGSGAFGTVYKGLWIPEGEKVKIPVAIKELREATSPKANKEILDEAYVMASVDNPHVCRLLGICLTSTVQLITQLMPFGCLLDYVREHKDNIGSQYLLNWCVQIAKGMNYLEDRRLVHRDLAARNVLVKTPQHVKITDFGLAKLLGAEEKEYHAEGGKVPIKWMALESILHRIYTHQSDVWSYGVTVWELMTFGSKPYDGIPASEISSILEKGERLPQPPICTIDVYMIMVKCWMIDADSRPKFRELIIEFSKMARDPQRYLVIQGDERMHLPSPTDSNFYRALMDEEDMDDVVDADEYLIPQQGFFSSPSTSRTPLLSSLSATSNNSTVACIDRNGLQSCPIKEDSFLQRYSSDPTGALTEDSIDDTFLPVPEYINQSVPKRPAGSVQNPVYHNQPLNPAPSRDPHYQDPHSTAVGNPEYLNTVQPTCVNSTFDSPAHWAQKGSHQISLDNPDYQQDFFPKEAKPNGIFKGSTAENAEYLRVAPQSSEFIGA

SMILES	IC50 (EGFR WT [1])	IC50 (EGFR V3 [2])	IC50 (EGFR NPH [3])	IC50 (HER2 WT [4]; [15])	IC50 (HER2 WT [4]; [16])	IC50 (EGFR WT [5])	IC50 (HER2 WT [6])	IC50 (HER2 S310F [7])	IC50 (EGFR SVD [8])	IC50 (EGFR NPH [9])	IC50 (EGFR SVD [10])	IC50 (HER2 YVMA [11])	IC50 (HER2 S310F [12])	IC50 (HER2 YVMA [13])	IC50 (EGFR V3 [14])
C=CC(=O)Nc1cc2c(Nc3ccc(OCc4ccccn4)c(Cl)c3)ncnc2cc1OCCN1C2CCC1COC2 [compound 31]	500 to 1000 nM	30 to 50 nM	50 to 100 nM	5 to 10 nM	≤ 10 nM	500 to 1000 nM	5 to 10 nM	30 to 50 nM	50 to 100 nM	50 to 100 nM	50 to 100 nM	100 to 200 nM	30 to 50 nM	100 to 200 nM	30 to 50 nM
C=CC(=O)Nc1cc2c(Nc3ccc(OCc4ccccn4)c(Cl)c3)ncnc2cc1OCCN1CCC1 [compound 33]	300 to 500 nM	20 to 30 nM	50 to 100 nM	5 to 10 nM	≤ 10 nM	300 to 500 nM	5 to 10 nM	10 to 20 nM	50 to 100 nM	50 to 100 nM	50 to 100 nM	100 to 200 nM	10 to 20 nM	100 to 200 nM	20 to 30 nM
C=CC(=O)Nc1cc2c(Nc3ccc(OCc4ccccn4)c(Cl)c3)ncnc2cc1OCCN1CC(OC)C1 [compound 35]	300 to 500 nM	20 to 30 nM	50 to 100 nM	< 5 nM	≤ 5 nM	300 to 500 nM	< 5 nM	10 to 20 nM	20 to 30 nM	50 to 100 nM	20 to 30 nM	30 to 50 nM	10 to 20 nM	30 to 50 nM	20 to 30 nM
C=CC(=O)Nc1cc2c(Nc3ccc(OCc4ccccn4)c(Cl)c3)ncnc2cc1OCCN1CC2CC1CO2 (stereo not drawn) [compound 39]	500 to 1000 nM	20 to 30 nM	50 to 100 nM	5 to 10 nM	≤ 10 nM	500 to 1000 nM	5 to 10 nM	10 to 20 nM	30 to 50 nM	50 to 100 nM	30 to 50 nM	50 to 100 nM	10 to 20 nM	50 to 100 nM	20 to 30 nM
C=CC(=O)Nc1cc2c(Nc3ccc(OCc4ccccn4)c(Cl)c3)ncnc2cc1OCCN(C)C1CCOC1 (stereo not drawn) [compound 41]	500 to 1000 nM	30 to 50 nM	50 to 100 nM	5 to 10 nM	≤ 10 nM	500 to 1000 nM	5 to 10 nM	20 to 30 nM	30 to 50 nM	50 to 100 nM	30 to 50 nM	50 to 100 nM	20 to 30 nM	50 to 100 nM	30 to 50 nM
C=CC(=O)Nc1cc2c(Nc3ccc(OCc4ccccn4)c(Cl)c3)ncnc2cc1N1CC2CN(C)CC2C1 (stereo not drawn) [compound 47]	300 to 500 nM	30 to 50 nM	500 to 1000 nM	10 to 20 nM	≤ 20 nM	300 to 500 nM	10 to 20 nM	30 to 50 nM	500 to 1000 nM	500 to 1000 nM	500 to 1000 nM	500 to 1000 nM	30 to 50 nM	500 to 1000 nM	30 to 50 nM
C=CC(=O)Nc1cc2c(Nc3ccc(OCc4ccccn4)c(Cl)c3)ncnc2cc1OCC1(N(C)C)CC1 [compound 54]	> 1000 nM	10 to 20 nM	100 to 200 nM	5 to 10 nM	≤ 10 nM	> 1000 nM	5 to 10 nM	20 to 30 nM	50 to 100 nM	100 to 200 nM	50 to 100 nM	100 to 200 nM	20 to 30 nM	100 to 200 nM	10 to 20 nM

Other lines, results leading:

IC50 (EGFR WT [1])	IC50 (EGFR V3 [2])	IC50 (EGFR NPH [3])	IC50 (HER2 WT [4]; [15])	IC50 (HER2 WT [4]; [16])	IC50 (EGFR WT [5])	IC50 (HER2 WT [6])	IC50 (HER2 S310F [7])	IC50 (EGFR SVD [8])	IC50 (EGFR NPH [9])	IC50 (EGFR SVD [10])	IC50 (HER2 YVMA [11])	IC50 (HER2 S310F [12])	IC50 (HER2 YVMA [13])	IC50 (EGFR V3 [14])	SMILES
200 to 300 nM	10 to 20 nM	50 to 100 nM	5 to 10 nM	≤ 10 nM	200 to 300 nM	5 to 10 nM	10 to 20 nM	30 to 50 nM	50 to 100 nM	30 to 50 nM	30 to 50 nM	10 to 20 nM	30 to 50 nM	10 to 20 nM	C=CC(=O)Nc1cc2c(Nc3ccc(OCc4ccccn4)c(Cl)c3)ncnc2cc1OCCN1CCCC1 [compound 28]
> 1000 nM	30 to 50 nM	50 to 100 nM	10 to 20 nM	≤ 20 nM	> 1000 nM	10 to 20 nM	20 to 30 nM	50 to 100 nM	50 to 100 nM	50 to 100 nM	30 to 50 nM	20 to 30 nM	30 to 50 nM	30 to 50 nM	C=CC(=O)Nc1cc2c(Nc3ccc(OCc4ccccn4)c(Cl)c3)ncnc2cc1OCCN1CC2CCC(C1)O2 [compound 36]
200 to 300 nM	10 to 20 nM	10 to 20 nM	< 5 nM	≤ 10 nM	200 to 300 nM	< 5 nM	10 to 20 nM	10 to 20 nM	10 to 20 nM	10 to 20 nM	20 to 30 nM	10 to 20 nM	20 to 30 nM	10 to 20 nM	C=CC(=O)Nc1cc2c(Nc3ccc(OCc4ccccn4)c(Cl)c3)ncnc2cc1OCCN1CCN(C)CC1 [compound 40]
500 to 1000 nM	50 to 100 nM	> 1000 nM	30 to 50 nM	≤ 50 nM	500 to 1000 nM	30 to 50 nM	50 to 100 nM	500 to 1000 nM	> 1000 nM	500 to 1000 nM	500 to 1000 nM	50 to 100 nM	500 to 1000 nM	50 to 100 nM	C=CC(=O)Nc1cc2c(Nc3ccc(OCc4ccccn4)c(Cl)c3)ncnc2cc1N1CCN(C)CC1 [compound 42]
500 to 1000 nM	20 to 30 nM	50 to 100 nM	5 to 10 nM	≤ 10 nM	500 to 1000 nM	5 to 10 nM	10 to 20 nM	30 to 50 nM	50 to 100 nM	30 to 50 nM	50 to 100 nM	10 to 20 nM	50 to 100 nM	20 to 30 nM	C=CC(=O)Nc1cc2c(Nc3ccc(OCc4ccccn4)c(Cl)c3)ncnc2cc1OCCN1CC2COCC2C1 (stereo not drawn) [compound 51]
500 to 1000 nM	20 to 30 nM	50 to 100 nM	5 to 10 nM	≤ 10 nM	500 to 1000 nM	5 to 10 nM	20 to 30 nM	50 to 100 nM	50 to 100 nM	50 to 100 nM	100 to 200 nM	20 to 30 nM	100 to 200 nM	20 to 30 nM	C=CC(=O)Nc1cc2c(Nc3ccc(OCc4ccccn4)c(Cl)c3)ncnc2cc1OCCN1CC2(CCO2)C1 [compound 52]

Source: patent publication US11034672B1, “Tyrosine kinase inhibitor compositions, methods of making and methods of use” (Black Diamond Therapeutics, Inc., priority 2018, dated 2021)
